Experiment [1] concerns the target T1, Zinc finger MYND domain-containing protein 11 (Homo sapiens) (UniProt Q15326).
T1 sequence (whole entry): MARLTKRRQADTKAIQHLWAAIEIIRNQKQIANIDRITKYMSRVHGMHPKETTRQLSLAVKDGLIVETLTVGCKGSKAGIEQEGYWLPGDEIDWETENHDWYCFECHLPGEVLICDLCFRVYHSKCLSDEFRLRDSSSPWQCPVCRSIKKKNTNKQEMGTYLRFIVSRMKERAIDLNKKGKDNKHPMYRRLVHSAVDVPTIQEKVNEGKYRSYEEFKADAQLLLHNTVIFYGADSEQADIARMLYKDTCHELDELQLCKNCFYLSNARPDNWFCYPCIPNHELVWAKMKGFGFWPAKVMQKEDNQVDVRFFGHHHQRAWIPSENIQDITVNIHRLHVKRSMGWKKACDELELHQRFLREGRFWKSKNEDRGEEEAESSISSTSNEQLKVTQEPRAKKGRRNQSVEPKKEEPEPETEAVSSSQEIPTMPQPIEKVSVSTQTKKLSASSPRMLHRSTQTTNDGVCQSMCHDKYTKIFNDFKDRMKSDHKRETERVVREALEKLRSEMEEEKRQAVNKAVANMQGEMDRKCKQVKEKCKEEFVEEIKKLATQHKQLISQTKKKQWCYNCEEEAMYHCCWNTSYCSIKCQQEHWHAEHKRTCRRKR
Description: Binding affinity to ZMYND11 PWWP1 domain (unknown origin) assessed as aggregation temperature at 400 uM by heating at 25 to 85 degC by differential static light scattering method.

Another experiment addresses T2, Peregrin (Homo sapiens) (UniProt P55201).
T2 sequence (whole entry): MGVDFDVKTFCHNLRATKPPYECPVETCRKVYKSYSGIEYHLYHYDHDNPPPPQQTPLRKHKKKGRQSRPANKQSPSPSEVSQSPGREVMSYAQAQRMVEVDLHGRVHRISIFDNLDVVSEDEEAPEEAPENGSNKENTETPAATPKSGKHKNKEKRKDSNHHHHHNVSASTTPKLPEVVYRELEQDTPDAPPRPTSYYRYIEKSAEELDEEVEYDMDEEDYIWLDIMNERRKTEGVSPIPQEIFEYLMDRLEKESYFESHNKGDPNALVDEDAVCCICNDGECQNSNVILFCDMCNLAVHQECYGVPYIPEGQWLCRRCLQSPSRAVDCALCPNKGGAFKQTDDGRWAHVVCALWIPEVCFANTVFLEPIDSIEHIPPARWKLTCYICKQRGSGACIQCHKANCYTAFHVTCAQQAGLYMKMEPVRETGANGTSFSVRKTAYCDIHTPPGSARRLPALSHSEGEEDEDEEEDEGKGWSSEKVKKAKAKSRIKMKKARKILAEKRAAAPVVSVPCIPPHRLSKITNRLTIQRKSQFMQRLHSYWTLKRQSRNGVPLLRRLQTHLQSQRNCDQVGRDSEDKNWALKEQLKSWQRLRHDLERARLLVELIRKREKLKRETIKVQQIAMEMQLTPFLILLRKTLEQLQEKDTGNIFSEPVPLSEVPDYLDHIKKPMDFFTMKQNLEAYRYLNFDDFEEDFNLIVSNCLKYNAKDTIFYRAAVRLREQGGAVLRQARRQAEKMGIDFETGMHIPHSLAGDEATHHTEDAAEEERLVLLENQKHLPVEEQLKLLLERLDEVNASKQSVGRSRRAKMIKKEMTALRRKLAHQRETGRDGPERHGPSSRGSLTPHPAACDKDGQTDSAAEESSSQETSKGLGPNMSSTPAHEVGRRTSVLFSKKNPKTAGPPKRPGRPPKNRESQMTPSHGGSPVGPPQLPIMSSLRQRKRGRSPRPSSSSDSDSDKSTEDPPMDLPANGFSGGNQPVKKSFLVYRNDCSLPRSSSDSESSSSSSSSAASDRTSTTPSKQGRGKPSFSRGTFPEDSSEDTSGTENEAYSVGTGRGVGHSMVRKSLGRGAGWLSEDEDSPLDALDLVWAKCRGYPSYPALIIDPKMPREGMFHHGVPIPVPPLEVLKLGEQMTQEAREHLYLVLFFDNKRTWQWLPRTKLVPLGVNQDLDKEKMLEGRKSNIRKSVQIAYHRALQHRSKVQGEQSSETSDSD
Briefly: Binding affinity to BRPF1 PWWP domain (unknown origin) assessed as aggregation temperature at 400 uM by heating at 25 to 85 degC by differential static light scattering method.

The structures appear in SMILES notation. Active and inactive are the calls of the source. The calls are words filed in the database; no cut-off is given here.

For the compound `N#Cc1ccc(C(C(N)=O)N2CCC2c2ccc(Cl)cc2)cc1` (configuration not stated), the outcome (in experiment [1]; on Peregrin (Homo sapiens)) was inactive.

The values above are taken from ChEMBL document CHEMBL4732170, “Discovery of Small-Molecule Antagonists of the PWWP Domain of NSD2” (J Med Chem, 2021).
